The target in the assay is T1, MLLT1 (Mus musculus, UniProt F6UGX7).
T1 construct: host or cells: NIH/3T3
T1 sequence (F6UGX7 1-547): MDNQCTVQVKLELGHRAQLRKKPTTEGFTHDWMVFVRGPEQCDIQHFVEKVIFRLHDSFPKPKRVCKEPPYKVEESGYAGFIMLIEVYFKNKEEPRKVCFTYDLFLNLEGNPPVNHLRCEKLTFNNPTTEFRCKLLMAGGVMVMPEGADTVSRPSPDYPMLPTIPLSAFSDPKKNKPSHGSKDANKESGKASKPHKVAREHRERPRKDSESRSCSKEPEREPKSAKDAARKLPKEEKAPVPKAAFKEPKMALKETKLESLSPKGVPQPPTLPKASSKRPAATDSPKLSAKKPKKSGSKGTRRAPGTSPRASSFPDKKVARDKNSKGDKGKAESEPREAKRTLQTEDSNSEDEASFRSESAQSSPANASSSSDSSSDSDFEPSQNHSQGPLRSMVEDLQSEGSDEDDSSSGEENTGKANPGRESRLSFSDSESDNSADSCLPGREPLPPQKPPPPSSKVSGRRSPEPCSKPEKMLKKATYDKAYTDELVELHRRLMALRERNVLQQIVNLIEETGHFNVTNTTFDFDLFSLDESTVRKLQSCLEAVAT
As to the kind of experiment: MLLT1 degradation assay in NIH/3T3 cells (JESS), dose response, 5 h. It counts as cell-based. As for the experimental part:
MLLT1 degradation efficacy of compounds was tested in an automated chemiluminescent detection system (JESS, Cat #004-650). NIH/3T3 (#CRL-1658, ATCC) were seeded at a density of 0.5 million cells/well in a cell culture treated 6-well cell culture plate in 2 mL of complete medium (DMEM+10% FBS+1X Penicillin-Streptomycin) and incubated at 37° C., 5% CO2. The next day, 10 mM DMSO stocks were prepared, and cells were treated with eight concentrations of test compound, starting from 100 nM, 5-fold dilution, at a final DMSO concentration of 0.1% and incubated for 5 h at 37° C., 5% CO2. Post incubation, cells were washed with HBSS and lysed in 70 μL of RIPA buffer supplemented with Protease inhibitors (sc-24948; Santa Cruz). Protein estimation was done using BCA protein assay kit (23228; Pierce). […] Post run, data was analysed using “Compass for SW” software for chemiluminescent detection. […]
MLLT3 degradation efficacy of compounds was tested in an automated chemiluminescent detection system (JESS, Cat #004-650). […] Post run, data was analysed using “Compass for SW” software for chemiluminescent detection. […]

With `CN1CCC[C@@H]1c1cc2cnc(NC(=O)c3ccc(CCCC#Cc4cccc5c4CN(C4CCC(=O)NC4=O)C5=O)cc3)cc2[nH]1` (stereo partly drawn) [Example 55, 4-(5-(2-(2,6-dioxopiperidin-3-yl)-1-oxoisoindolin-4-yl)pent-4-yn-1-yl)-N-(2-((R)-1-methylpyrrolidin-2-yl)-1H-pyrrolo[3,2-c]pyridin-6-yl)benzamide], the Dmax (NIH3T3, read-out: MLLT1 Dmax in NIH/3T3 cells) is 96%. Further, for the setting “NIH/3T3 cells, 5 h”, it took 1.2 nM to reach half-maximal degradation (DC50).

Source of the values: patent publication US20260191968A1, “PROTAC DEGRADERS OF MLLT1 AND/OR MLLT3” (DARK BLUE THERAPEUTICS LTD, priority 2024, published 2026).
